Measurements reported in patent US20030026852A1, “Molecular iodine pharmaceutical composition” (SYMBOLLON CORPORATION, priority 2001, published 2003).

Assays:
[1] = administered orally; cited from earlier work
[2] = stability of a solution of molecular iodine in mineral oil at 40° C.; format: physicochemical
Experimental: The stability of a solution of molecular iodine in oil was measured. Crystals of elemental iodine were dissolved at room temperature in mineral oil. The concentrations of molecular iodine were approximately 0.6, 3.0 and 6.0 mg/mL. The absorbance was determined at 522 nm as a measure of the concentration of molecular iodine. Samples were stored in 500 mL amber glass bottles (Fisher Cat. No. 05-719-466) with Teflon lined screw-tops. The screw tops contained a septum to sample the fluids using a syringe without opening the bottle. The bottles were stored in an incubator at 40° C.
Samples were analyzed monthly to determine if there was a loss of molecular iodine. On the day of an analysis, a bottle was removed from the incubator, placed into room-temperature water covering approximately ¾ of the bottle, and allowed to cool for at least 6 hours. A sample was removed with a glass syringe and its absorbance was determined at 522 nm.

[3] = interaction of molecular iodine with mineral oil, UV-visible absorbance; format: physicochemical; conditions: elemental iodine dissolved in mineral oil, 300-600 nm
Experimental: The interaction of molecular iodine with mineral oil was evaluated. The following stock solutions were prepared for this experiment: 0.050 grams and 1.001 grams of elemental iodine crystals dissolved into about 80 ml of mineral oil in two different 100-ml flasks, and then filled to 100 ml with mineral oil. The absorbance spectrum between 300 and 600 nm for various mixtures of these two stock solutions were made in a UV/V is scanning spectrophotometer (Schimadzu 1125). The absorbance spectrums were analyzed and the extinction coefficient was calculated at appropriate wavelengths.
The UV-visible spectra of iodine-in-mineral oil presents two peaks in the range of 300-600 nm; one peak is at 302 nm and the other is at 522 nm (the maximum absorbance is at 522 nm). The absorbance is proportional to concentration as predicted by Beer's Law. […] The two peaks are at 302 nm and 522 nm and are slightly variable in the test concentration range. The extinction coefficients (moles per 1000 grams)^−1 (per cm)^−1) at 302 and 522 nm were calculated to be 219 and 905 respectively.

women = test: six month study of molecular iodine in 111 women (IND #56,523); format: in vivo; conditions: 111 women, 0, 1.5, 3.0 or 6.0 mg per day for six months, in situ generation of molecular iodine
Experimental: To determine the potential for molecular iodine to cause hyperthyroidism or hypothyroidism 111 women daily were dosed with either 0, 1.5, 3.0 or 6.0 mg of molecular iodine per day for six months. This study was performed under the guidance of the FDA (IND #56,523). The dosage form used relied upon in situ generation of molecular iodine as described in U.S. Pat. No. 5,885,592 as opposed to the aqueous iodine therapy of Table 5. The total exposure to molecular iodine in this study was 3.619 subject years.

[4] = tested on: mammalian thyroid parameters; conditions: orally administered; cited from earlier work

SMILES | oral toxicity compared with iodide [1] | Percentage of Initial Absorbance (OD522nm) ([2]; 0.6 mg/mL I2 in mineral oil, Day 14) [%] | Percentage of Initial Absorbance (OD522nm) ([2]; 0.6 mg/mL I2 in mineral oil, Day 32) [%] | Percentage of Initial Absorbance (OD522nm) ([2]; 0.6 mg/mL I2 in mineral oil, Day 56) [%] | Percentage of Initial Absorbance (OD522nm) ([2]; 0.6 mg/mL I2 in mineral oil, Day 97) [%] | Percentage of Initial Absorbance (OD522nm) ([2]; 0.6 mg/mL I2 in mineral oil, Day 143) [%] | Percentage of Initial Absorbance (OD522nm) ([2]; 3.0 mg/mL I2 in mineral oil, Day 14) [%] | Percentage of Initial Absorbance (OD522nm) ([2]; 3.0 mg/mL I2 in mineral oil, Day 32) [%] | Percentage of Initial Absorbance (OD522nm) ([2]; 3.0 mg/mL I2 in mineral oil, Day 56) [%] | Percentage of Initial Absorbance (OD522nm) ([2]; 3.0 mg/mL I2 in mineral oil, Day 97) [%] | Percentage of Initial Absorbance (OD522nm) ([2]; 3.0 mg/mL I2 in mineral oil, Day 143) [%] | Percentage of Initial Absorbance (OD522nm) ([2]; 6.0 mg/mL I2 in mineral oil, Day 14) [%] | Percentage of Initial Absorbance (OD522nm) ([2]; 6.0 mg/mL I2 in mineral oil, Day 32) [%] | Percentage of Initial Absorbance (OD522nm) ([2]; 6.0 mg/mL I2 in mineral oil, Day 56) [%] | Percentage of Initial Absorbance (OD522nm) ([2]; 6.0 mg/mL I2 in mineral oil, Day 97) [%] | Percentage of Initial Absorbance (OD522nm) ([2]; 6.0 mg/mL I2 in mineral oil, Day 143) [%] | change of absorbance with time (stability in mineral oil) [3] | hyperthyroidism or hypothyroidism (women) | treatment-emergent adverse events, laboratory parameters, vital signs versus dose (women) | concentration negatively affecting mammalian thyroid parameters, fold less than for a comparable effect from molecular iodine [4] [fold]
II [I2, molecular iodine] | less toxic than iodide | 99.5 | 99.1 | 98.2 | 97.8 | 96.4 | 100.6 | 100.5 | 100.4 | 100.1 | 100.8 | 100.3 | 100.2 | 99.2 | 101.4 | 100.7 | did not change with time | No hyperthyroidism or hypothyroidism was observed | not associated with increases in incidence, severity and causality of treatment-emergent adverse events or clinically significant changes in laboratory parameters or vital signs | 
I [iodide] |  |  |  |  |  |  |  |  |  |  |  |  |  |  |  |  |  |  |  | 10
